Columns and labels:
LQBG8 [1] = tested on: T1, LQBG8; assay: glucose release (glucose oxidase-peroxidase), Lineweaver-Burk; assay type: biochemical; settings: 70 °C, pH 5.6; cellobiose 0-20 mg/mL (Km lies above the tested range)
T1 construct: differs from Tepidiforma bonchosmolovskayae WP158066159.1 only at residue 48 (Ser in LQBG8, Gly there)

LQBG8 [2] = tested on: T1, LQBG8; assay: p-nitrophenol release at […] nm; assay type: biochemical; settings: optimal temperature (70 °C); pH not stated for this assay

Km (LQBG8 [1]) | Km (LQBG8 [2]) | Compound
28 ± 1.9 mg/mL |  | OC[C@H]1O[C@@H](O[C@H]2[C@H](O)[C@@H](O)C(O)O[C@@H]2CO)[C@H](O)[C@@H](O)[C@@H]1O (some centres unmarked) [cellobiose]
 | 260 ± 10 µM | O=[N+]([O-])c1ccc(O[C@@H]2O[C@H](CO)[C@@H](O)[C@H](O)[C@H]2O)cc1 [p-nitrophenyl-β-D-glucopyranoside]

— paper PMC10764553, “Characterization of a thermophilic and glucose-tolerant GH1 β-glucosidase from hot springs and its prospective application in corn stover degradation” (Frontiers in Microbiology, 2023)
